Measured values as given in patent US11141428B2, “Octasaccharides and uses thereof” (Academia Sinica, priority 2017, dated 2021).
Entries after “also recorded” stand apart in the source; their conditions may differ.

Tests used:
[1] = test system: adult DRG neurons; assay: Rescue of dystrophic endballs and axonal growth of adult DRG neurons across an aggrecan gradient (FIG. 1b, c); type: cell-based, mice; settings: for promotion of axonal growth / penetration across an aggrecan gradient / rescue / prevention of dystrophic endball formation: 20 μg/mL, adult DRG neurons on aggrecan gradient, FIG. 1 panel b; for axons invading the aggrecan rim that could pass the rim of aggrecan gradient: FIG. 1 panel c, left, comparable to chondroitinase ABC (C-ABC) digestion of chondroitin sulfate
Procedure: Preparation of an aggrecan gradient spot on coverslip. Glass coverslips were coated with 100 μg/mL PLL overnight at room temperature, rinsed with sterile water and dried completely. Onto the coverslip, 2 μL of an aggrecan (0.4 mg/mL) and laminin (10 μg/mL) mixture in Ca^2+- and Mg^2+-free Hank's balanced salt solution (HBSS) (Invitrogen) was spotted and dried. Then, the coverslip was bathed in laminin ([…]) solution in HBSS until just before (i.e., at least 3 h before) cell plating at 37° C. The laminin solution was subsequently removed, and the cells were plated without allowing the surface of the coverslip to dry.
DRG neuron primary culture. DRGs were dissected out of C57BL/6J (SLC) adult (12-16 weeks) female mice. The roots of isolated DRGs were trimmed in cold HBSS, collected in a centrifuge tube and spun down for 1 min at low speed (500 rpm). Then, the HBSS was removed. The tissues were incubated in collagenase-II (4 mg/mL)/dispase-II (4.67 mg/mL) in HBSS for 15 min at 37° C. After spinning down at low speed, the tissues were rinsed once with pre-warmed culture media consisting of Neurobasal-A (Gibco) with Gluta-MAX (Gibco), Anti-Anti (Gibco) and B-27 (Invitrogen), then spun down and triturated in fresh media. To refine neurons, the cell suspension was carefully overlaid onto 15% bovine serum albumin (BSA) in HBSS and spun down for 5 min at high speed (1000 rpm), and the supernatant was gently removed. The DRG cells were rinsed once and suspended in the media. The DRG cells were plated onto coverslips in the media.
Immunostaining. DRG neurons were fixed in ice-cold methanol for 15 min at −30° C. The fixed samples were then rinsed three times with phosphate buffered saline (PBS) and incubated in a blocking solution containing 5% (v/v) goat serum (Vector) and 0.2% (v/v) Triton-X 100 (Sigma) for 90 min at room temperature. For neuron-specific class III β-tubulin (Tuj1) staining, samples were bathed in 1:1000 mouse monoclonal Tuj1 (Covance, 801201) diluted in PBS containing 2.5% (v/v) normal goat serum overnight at 4° C. After three washes with PBS, neurons were incubated with 1:250 Alexa488-conjugated goat anti-mouse IgG (Molecular Probes, A11001) dissolved in PBS containing 2.5% (v/v) goat serum for 2 h at room temperature.

[2] = test system: RPTPσ; assay: Activation / phosphorylation of RPTPσ by sulfated octasaccharides (Western blot, densitometric analysis, FIG. 1a); type: cell-based; settings: 10 μg/mL, 15 min; FIG. 1 panel a
Procedure: SDS-PAGE and Western blotting. Cells were lysed with Tris-buffered saline (TBS), 1% Triton-X, Complete Mini Protease Inhibitor Cocktail (Roche) and Phostop Phosphatase Inhibitor Cocktail (Roche). Lysates were incubated on ice for 10 min and centrifuged at 20000 g for 10 min at 4° C. Supernatants were mixed with 4×SDS sample buffer and boiled for 5 min.
All samples were run on 5-20% gradient gel (Wako) and transferred to nitrocellulose membranes (GE Healthcare). After blocking with 5% non-fat dry milk or BSA, the membranes were blotted with primary antibodies. Primary antibodies used in this work included anti-EGFR pY1174 (Invitrogen, 44794G), anti-HA (Roche, clone 3F10), 4G10 Platinum (Millipore, 05-1050) and anti-β-actin (Sigma Aldrich, clone AC-15). All primary antibodies were used at 1:1000 dilution. All secondary antibodies conjugated with horseradish peroxidase were from Jackson ImmunoResearch and used at 1:3000 dilution. Membranes were developed with Novex ECL (Invitrogen) or ECL Plus Substrate (Pierce).

5-Aminopentyl (2-deoxy-2-sulfamido-6-O-sulfonato-α-D-glucopyranosyl)-(1→4)-α-L-idopyranosiduronyl-(1→4)-(2-deoxy-2-sulfamido-6-O-sulfonato-α-D-glucopyranosyl)-(1→4)-β-D-glucopyranosiduronyl-(1→4)-(2-deoxy-2-sulfamido-6-O-sulfonato-α-D-glucopyranosyl)-(1→4)-α-L-idopyranosiduronyl-(1→4)-(2-deoxy-2-sulfamido-6-O-sulfonato-α-D-glucopyranosyl)-(1→4)-β-D-glucopyranosiduronate [HS16]
promotion of axonal growth / penetration across an aggrecan gradient [1]: facilitated their penetration across the gradient
rescue / prevention of dystrophic endball formation [1]: prevent formation of dystrophic endballs
axons invading the aggrecan rim that could pass the rim of aggrecan gradient [1]: Nearly half

5-Aminopentyl (2-deoxy-2-sulfamido-α-D-glucopyranosyl)-(1→4)-α-L-idopyranosiduronyl-(1→4)-(2-deoxy-2-sulfamido-α-D-glucopyranosyl)-(1→4)-β-D-glucopyranosiduronyl-(1→4)-(2-deoxy-2-sulfamido-α-D-glucopyranosyl)-(1→4)-α-L-idopyranosiduronyl-(1→4)-(2-de oxy-2-sulfamido-α-D-glucopyranosyl)-(1→4)-β-D-glucopyranosiduronate [HS10]
activation of RPTPσ (inducing phosphorylation of RPTPσ) [2]: capable of inducing phosphorylation of RPTPσ

NCCCCCO[C@@H]1O[C@H](C(=O)O)[C@@H](O[C@H]2O[C@H](CO)[C@@H](O[C@@H]3O[C@@H](C(=O)O)[C@@H](O[C@H]4O[C@H](CO)[C@@H](O[C@@H]5O[C@H](C(=O)O)[C@@H](O[C@H]6O[C@H](CO)[C@@H](O[C@@H]7O[C@@H](C(=O)O)[C@@H](O[C@H]8O[C@H](CO)[C@@H](O)[C@H](O)[C@H]8NS(=O)(=O)O)[C@H](O)[C@H]7OS(=O)(=O)O)[C@H](O)[C@H]6NS(=O)(=O)O)[C@H](O)[C@H]5OS(=O)(=O)O)[C@H](O)[C@H]4NS(=O)(=O)O)[C@H](O)[C@H]3OS(=O)(=O)O)[C@H](O)[C@H]2NS(=O)(=O)O)[C@H](O)[C@H]1OS(=O)(=O)O [HS14]
promotion of axonal growth / penetration across an aggrecan gradient [1]: promoted axonal growth
rescue / prevention of dystrophic endball formation [1]: rescued dystrophic endball formation
promotion of axonal growth / penetration across an aggrecan gradient ([1]; listed as HS 14): facilitated their penetration across the gradient
rescue / prevention of dystrophic endball formation ([1]; listed as HS 14): prevent formation of dystrophic endballs
axons invading the aggrecan rim that could pass the rim of aggrecan gradient [1]: Nearly half
activation of RPTPσ (inducing phosphorylation of RPTPσ) [2]: capable of inducing phosphorylation of RPTPσ; also recorded: activated RPTPσ
